Experimental data reported in ChEMBL document CHEMBL4831497, “Monoacylglycerol lipase (MAGL) inhibitors based on a diphenylsulfide-benzoylpiperidine scaffold” (Eur J Med Chem, 2021).
Activity calls are given as the source filed them. The calls are words filed in the database; no cut-off is given here.

How the values were obtained:
COLO 201 = assay: Antiproliferative activity against human COLO201 cells assessed as inhibition of cell viability for 96 hrs by cell titre glo luminescence assay; format: functional, cell-based; conditions: COLO 201, 96 h
COLO 205 = assay: Antiproliferative activity against human COLO205 cells assessed as inhibition of cell viability for 96 hrs by cell titre glo luminescence assay; format: functional, cell-based; conditions: COLO 205, 96 h
HCT-116 = assay: Antiproliferative activity against human HCT-116 cells assessed as inhibition of cell viability for 96 hrs by cell titre glo luminescence assay; format: functional, cell-based; conditions: HCT-116, 96 h
HT-29 = assay: Antiproliferative activity against human HT-29 cells assessed as inhibition of cell viability for 96 hrs by cell titre glo luminescence assay; format: functional, cell-based; conditions: HT-29, 96 h
KURAMOCHI = assay: Antiproliferative activity against human KURAMOCHI cells assessed as inhibition of cell viability for 96 hrs by cell titre glo luminescence assay; format: functional, cell-based
OVCAR-3 = assay: Antiproliferative activity against human OVCAR-3 cells assessed as inhibition of cell viability for 96 hrs by cell titre glo luminescence assay; format: functional, cell-based; conditions: OVCAR-3, 96 h
OVCAR-5 = assay: Antiproliferative activity against human OVCAR-5 cells assessed as inhibition of cell viability for 96 hrs by cell titre glo luminescence assay; format: functional, cell-based; conditions: OVCAR-5, 96 h
SK-OV-3 = assay: Antiproliferative activity against human SK-OV-3 cells assessed as inhibition of cell viability for 96 hrs by cell titre glo luminescence assay; format: functional, cell-based; conditions: SK-OV-3, 96 h
MDA-MB-231 = assay: Antiproliferative activity against human MDA-MB-231 cells assessed as inhibition of cell viability for 96 hrs by cell titre glo luminescence assay; format: functional, cell-based; conditions: MDA-MB-231, 96 h
Monoglyceride lipase [1] = molecular target: T1, Monoglyceride lipase (Homo sapiens, UniProt Q99685)
T1 sequence (Q99685 whole entry): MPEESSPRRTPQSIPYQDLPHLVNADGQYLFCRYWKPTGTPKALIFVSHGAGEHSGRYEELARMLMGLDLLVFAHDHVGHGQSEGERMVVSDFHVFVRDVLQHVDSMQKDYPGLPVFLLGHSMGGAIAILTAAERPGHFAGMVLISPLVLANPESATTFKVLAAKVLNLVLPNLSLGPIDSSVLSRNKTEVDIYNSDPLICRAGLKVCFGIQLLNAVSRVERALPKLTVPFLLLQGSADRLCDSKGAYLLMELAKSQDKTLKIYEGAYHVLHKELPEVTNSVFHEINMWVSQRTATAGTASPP
Description: Inhibition of human recombinant MAGL using 4-NPA as substrate by microplate reader method

Monoglyceride lipase [2] = molecular target: T1, Monoglyceride lipase; remark: listed apart in the source
Description: Inhibition of human recombinant MAGL assessed as dissociation constant using 4-NPA as substrate

[3] = molecular target: T2, Monoglyceride lipase (Homo sapiens) (UniProt Q99685); conditions: dose 320.0 nM, time 60.0 min
T2 sequence (whole entry): T1 sequence (Q99685 whole entry)

[4] = molecular target: T2, Monoglyceride lipase (Homo sapiens); conditions: dose 8.0 nM, time 60.0 min

IC50 (COLO 201) [µM] | IC50 (COLO 205) [µM] | IC50 (HCT-116) [µM] | IC50 (HT-29) [µM] | IC50 (OVCAR-3) [µM] | IC50 (OVCAR-5) [µM] | IC50 (SK-OV-3) [µM] | IC50 (MDA-MB-231) [µM] | IC50 (Monoglyceride lipase [1]) [µM] | Ki (Monoglyceride lipase [2]) [µM] | inhibition [3] | inhibition [4] | SMILES | IC50 (KURAMOCHI) [µM]
83 | 79 | 86 | 6.9 | 93 | 10 | 84 | 71 |  |  |  |  | O=C(c1ccc(Cl)cc1)C1CCN(C(=O)c2cccc(O)c2)CC1 | 75
3.3 | 2.2 | 3.4 | 2.5 | 8.6 | 0.78 | 4.4 | 10 | 0.00186 | 0.00112 | Active | Active | O=C(c1ccc(Sc2cccc(OC(F)(F)F)c2)cc1)C1CCN(C(=O)c2cc(O)ccc2F)CC1 | 3.7
8.7 | 8.7 | 7.6 | 9 | 12 | 3.7 | 8.8 | 2.7 | 0.0015 | 0.00114 | Active | Active | O=C(c1ccc(Sc2cccc(Cl)c2)cc1)C1CCN(C(=O)c2cc(O)ccc2F)CC1 | 7
2.9 | 3.3 | 3.3 | 8.4 | 5.7 | 0.32 | 4.4 | 5.4 |  |  |  |  | O=C(c1ccc(Sc2cccc(C(F)(F)F)c2)cc1)C1CCN(C(=O)c2cc(O)ccc2F)CC1 | 3.3
